In patent US9475824B2, “Fused pyrimidines as inhibitors of p97 complex” (Cleave Biosciences, Inc., priority 2012, dated 2016):
pIC50: −log10 of the molar value.

Experiments:
[1] = test system: K48-Ub, A549 cells; experiment: A549 K48 cell intensity (immunofluorescence, high content imaging); assay type: cell-based; details: Homo sapiens, 6 hr compound incubation
Description: Image-analysis is used to generate quantitative data from these assays that can be fit to a four-parameter sigmoid curve to derive IC50 values. Substrates of the ubiquitin-proteasome system, such as p53, are monitored after tumor cell lines are incubated with compounds for several hours. Accumulation of these proteins indicates an inhibition of proteasome-mediated degradation. Accumulation of lysine-48 chain linkage of poly-ubiquitin is also monitored by immunofluorescence as an indicator of ubiquitin-proteasome system inhibition. Both LC3 and SQSTM1 are mediators of autophagy. The localization and amounts of these proteins are monitored by immunofluorescence and report on the activity and inhibition of autophagy in response to p97 inhibition.
Day 1, Cell Plating to Establish Colonies of Cancer Cells • Cell Plating: • Seed cells ˜16 hrs prior to compound treatment • Plate 25 μL of A549 cells in every well of 384-well plate using multidrop. • Two (2) black plates for IF at 2500 cells/well • Let plate sit at room temp for 10-15 minutes prior to putting in incubator to allow cells to stick in middle of plate. • One (1) white plate for viability at 500 cells/well.

[2] = target: p97 (Homo sapiens, UniProt P55072); experiment: P97 ATPase biochemical assay (ADP Glo); details: 20 nM p97, 20 μM ATP, 37° C. 15 minutes
Description: The ATPase assay is performed according the following protocol: Purified enzyme (20 nM p97), substrate (20 μM ATP) and a dose titration of compounds are mixed in buffer (50 mM TRIS pH 7.5, 20 mM MgCl2, 0.02% TX-100, 1 mM DTT, 0.2% (v/v) glycerol) and incubated at 37° C. for 15 minutes. The reaction is terminated and the level of product generated is measured using the ADP Glo Assay Kit (Promega, Madison Wis.). Plotting product generated versus compound concentration and using a four-parameter fit model generates an IC50 value for each compounds.
The p97 assay is an initial screening assay used to determine inhibitory activity of the fused pyrimidine compounds of the invention against the p97 complex. As discussed above, inhibition of activity of the p97 proteosome complex can enable apoptosis and cause elimination of neoplastic cells (cancer cells). The method follows that of Christianson in Nat.
Assay Buffer is a mixture of 50 mM TRIS pH 7.5, 20 mM MgCl2, 0.02% TX-100, 1 mM DTT and 0.2% (v/v) Glycerol. […] The identification kit is an ADP glo kit (Promega): stop buffer, detection reagent.
0.5 μL compound serial diluted in DMSO (Final Conc. 10%)
2 μL ATP (Final Conc.=20 uM, diluted in assay buffer)
2.5 μL p97 (Final Conc.=20 nM, diluted in assay buffer)
Incubate at 37 degC for 15 min.
Add 5 μL of stop buffer, incubate at RT for 40 min.
Add 10 μL of detection reagent, incubate at RT for 30 min.
Read luminescence on Envision plate reader.
Plot normalized luminescence data against log-transformed concentration values and fit to a sigmoidal curve to determine IC50 values (done in Collaborative Drug Discovery software).

Chain of p97 (P55072 whole entry): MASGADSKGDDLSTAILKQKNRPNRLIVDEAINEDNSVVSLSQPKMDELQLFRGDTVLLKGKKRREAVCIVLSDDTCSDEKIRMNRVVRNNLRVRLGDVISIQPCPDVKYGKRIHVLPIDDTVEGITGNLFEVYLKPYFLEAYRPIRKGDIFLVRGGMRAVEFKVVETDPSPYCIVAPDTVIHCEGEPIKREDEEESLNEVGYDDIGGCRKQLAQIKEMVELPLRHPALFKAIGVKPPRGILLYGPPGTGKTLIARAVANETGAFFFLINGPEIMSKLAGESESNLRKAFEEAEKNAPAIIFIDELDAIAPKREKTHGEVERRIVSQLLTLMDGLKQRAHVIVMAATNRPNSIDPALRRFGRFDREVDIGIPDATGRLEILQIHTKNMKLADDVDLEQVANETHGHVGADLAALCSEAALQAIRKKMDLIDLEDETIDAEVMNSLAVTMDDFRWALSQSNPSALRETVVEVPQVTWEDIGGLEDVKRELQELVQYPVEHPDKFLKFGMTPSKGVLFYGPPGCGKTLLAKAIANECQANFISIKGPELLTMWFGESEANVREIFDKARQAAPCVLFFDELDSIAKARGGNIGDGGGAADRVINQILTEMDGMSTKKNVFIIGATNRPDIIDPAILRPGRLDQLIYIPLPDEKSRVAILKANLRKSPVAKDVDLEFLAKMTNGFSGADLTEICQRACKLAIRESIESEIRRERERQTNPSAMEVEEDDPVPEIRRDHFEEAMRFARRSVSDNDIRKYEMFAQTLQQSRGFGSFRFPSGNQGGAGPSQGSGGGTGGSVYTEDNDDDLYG

Row | pIC50 [1] | pIC50 [2] | SMILES
1 | > 5.00 | > 7.00 | COc1nc2ccccc2n1-c1nc2c(c(NCc3ccccc3)n1)CCCC2 [compound 9, N-benzyl-2-(2-methoxy-1H-1,3-benzodiazol-1-yl)-5,6,7,8-tetrahydroquinazolin-4-amine]
2 | > 5.00 | > 6.52 | Cc1cc2ccccc2n1-c1nc2c(c(NCc3ccccc3)n1)CCCC2 [compound 21, N-benzyl-2-(2-methyl-1H-indol-1-yl)-5,6,7,8-tetrahydroquinazolin-4-amine]
3 | > 5.00 | > 7.00 | Cc1cc2c(C#N)cccc2n1-c1nc2c(c(NCc3ccccc3)n1)CNCC2 [compound 42, 1-[4-(benzylamino)-5H,6H,7H,8H-pyrido[4,3-d]pyrimidin-2-yl]-2-methyl-1H-indole-4-carbonitrile]
4 | > 5.00 | > 7.52 | Cc1cc2c(C(=O)NCCN(C)C)cccc2n1-c1nc2c(c(NCc3ccccc3)n1)COCC2 [compound 84]
5 | > 5.00 | > 7.52 | Cc1cc2c(C(N)=O)cccc2n1-c1nc2c(c(NCc3ccccc3)n1)CCCC2 [compound 90, 1-[4-(benzylamino)-5,6,7,8-tetrahydroquinazolin-2-yl]-2-methyl-1H-indole-4-carboxamide]
6 | > 5.00 | > 7.52 | COc1cc2c(C(N)=O)cccc2n1-c1nc2c(c(NCc3ccccc3)n1)CCCC2 [compound 91, 1-[4-(benzylamino)-5,6,7,8-tetrahydroquinazolin-2-yl]-2-methoxy-1H-indole-4-carboxamide]
7 | > 5.00 | > 7.00 | Cc1nc2c(C(N)=O)cccc2n1-c1nc2c(c(NCc3ccccc3)n1)COCC2 [compound 93, 1-[4-(benzylamino)-5H,7H,8H-pyrano[4,3-d]pyrimidin-2-yl]-2-methyl-1H-1,3-benzodiazole-4-carboxamide]
8 | > 5.00 | > 7.52 | COc1nc2c(C(N)=O)cccc2n1-c1nc2c(c(NCc3ccccc3)n1)COCC2 [compound 94, 1-[4-(benzylamino)-5H,7H,8H-pyrano[4,3-d]pyrimidin-2-yl]-2-methoxy-1H-1,3-benzodiazole-4-carboxamide]
9 | > 5.00 | > 7.00 | NC(=O)c1cccc2c1cc(CO)n2-c1nc2c(c(NCc3ccccc3)n1)COCC2 [compound 96, 1-[4-(benzylamino)-5H,7H,8H-pyrano[4,3-d]pyrimidin-2-yl]-2-(hydroxymethyl)-1H-indole-4-carboxamide]
10 | > 5.00 | > 7.00 | CNC(=O)c1cccc2c1cc(C)n2-c1nc2c(c(NCc3ccccc3)n1)COCC2 [compound 97, 1-[4-(benzylamino)-5H,7H,8H-pyrano[4,3-d]pyrimidin-2-yl]-N,2-dimethyl-1H-indole-4-carboxamide]
11 | > 5.00 | > 7.52 | NCc1cc2c(C(N)=O)cccc2n1-c1nc2c(c(NCc3ccccc3)n1)CCCC2 [compound 101, 2-(aminomethyl)-1-[4-(benzylamino)-5,6,7,8-tetrahydroquinazolin-2-yl]-1H-indole-4-carboxamide]
12 | > 5.00 | > 6.00 | Cc1cc2c(C(=O)NCCN)cccc2n1-c1nc2c(c(NCc3ccccc3)n1)COCC2 [compound 105, N-(2-aminoethyl)-1-[4-(benzylamino)-5H,7H,8H-pyrano[4,3-d]pyrimidin-2-yl]-2-methyl-1H-indole-4-carboxamide]
13 | > 5.00 | > 6.52 | COc1nc2c(C#N)cccc2n1-c1nc2c(c(NCc3ccccc3)n1)COCC2 [compound 106, 1-[4-(benzylamino)-5H,7H,8H-pyrano[4,3-d]pyrimidin-2-yl]-2-methoxy-1H-1,3-benzodiazole-4-carbonitrile]
14 | > 5.00 | > 7.52 | Cc1cc2c(C(=O)O)cccc2n1-c1nc2c(c(NCc3ccccc3)n1)COCC2 [compound 107, 1-[4-(benzylamino)-5H,7H,8H-pyrano[4,3-d]pyrimidin-2-yl]-2-methyl-1H-indole-4-carboxylic acid]
15 | > 5.00 | > 7.52 | Cc1cc2c(C(=O)O)cccc2n1-c1nc2c(c(NCc3ccccc3)n1)CCCC2 [compound 108, 1-[4-(benzylamino)-5,6,7,8-tetrahydroquinazolin-2-yl]-2-methyl-1H-indole-4-carboxylic acid]
16 | > 5.00 | > 7.00 | Cc1cc2c(S(N)(=O)=O)cccc2n1-c1nc2c(c(NCc3ccccc3)n1)CCCC2 [compound 110, 1-[4-(benzylamino)-5,6,7,8-tetrahydroquinazolin-2-yl]-2-methyl-1H-indole-4-sulfonamide]
17 | > 5.00 | > 7.00 | Cc1cc2c(S(C)(=O)=O)cccc2n1-c1nc2c(c(NCc3ccccc3)n1)CCCC2 [compound 111, N-benzyl-2-(4-methanesulfonyl-2-methyl-1H-indol-1-yl)-5,6,7,8-tetrahydroquinazolin-4-amine]
18 | > 5.00 | > 7.00 | CCc1cc2c(C(N)=O)cccc2n1-c1nc2c(c(NCc3ccccc3)n1)CCCC2 [compound 112, 1-[4-(benzylamino)-5,6,7,8-tetrahydroquinazolin-2-yl]-2-ethyl-1H-indole-4-carboxamide]
19 | > 5.00 | > 6.52 | CCc1cc2c(C(N)=O)cccc2n1-c1nc2c(c(NCc3ccccc3)n1)COCC2 [compound 113, 1-[4-(benzylamino)-5H,7H,8H-pyrano[4,3-d]pyrimidin-2-yl]-2-ethyl-1H-indole-4-carboxamide]
20 | > 5.00 | > 7.52 | COc1nc2c(C(N)=O)cccc2n1-c1nc2c(c(NCc3ccccc3)n1)CCCC2 [compound 114, 1-[4-(benzylamino)-5,6,7,8-tetrahydroquinazolin-2-yl]-2-methoxy-1H-1,3-benzodiazole-4-carboxamide]
21 | > 5.00 | > 6.52 | Cc1cc2c(S(C)(=O)=O)cccc2n1-c1nc2c(c(NCc3ccccc3)n1)COCC2 [compound 118, N-benzyl-2-(4-methanesulfonyl-2-methyl-1H-indol-1-yl)-5H,7H,8H-pyrano[4,3-d]pyrimidin-4-amine]
22 | – | > 7.52 | Cc1cc2c(-c3nnn[nH]3)cccc2n1-c1nc2c(c(NCc3ccccc3)n1)COCC2 [compound 120, N-benzyl-2-[2-methyl-4-(1H-1,2,3,4-tetrazol-5-yl)-1H-indol-1-yl]-5H,7H,8H-pyrano[4,3-d]pyrimidin-4-amine]
23 | – | > 7.52 | Cc1cc2c(-c3nnn[nH]3)cccc2n1-c1nc2c(c(NCc3ccccc3)n1)CCCC2 [compound 121, N-benzyl-2-[2-methyl-4-(1H-1,2,3,4-tetrazol-5-yl)-1H-indol-1-yl]-5,6,7,8-tetrahydroquinazolin-4-amine]
24 | > 5.00 | – | Cc1cc2c(CN)cccc2n1-c1nc2c(c(NCc3ccccc3)n1)COCC2 [compound 125, 2-[4-(aminomethyl)-2-methyl-1H-indol-1-yl]-N-benzyl-5H,7H,8H-pyrano[4,3-d]pyrimidin-4-amine]
25 | – | > 7.00 | NC(=O)NCc1cc2c(C(N)=O)cccc2n1-c1nc2c(c(NCc3ccccc3)n1)CCCC2 [compound 127, 1-[4-(benzylamino)-5,6,7,8-tetrahydroquinazolin-2-yl]-2-[(carbamoylamino)methyl]-1H-indole-4-carboxamide]
26 | – | > 6.00 | CC(C)c1cc2c(C(N)=O)cccc2n1-c1nc2c(c(NCc3ccccc3)n1)COCC2 [compound 129, 1-[4-(benzylamino)-5H,7H,8H-pyrano[4,3-d]pyrimidin-2-yl]-2-(propan-2-yl)-1H-indole-4-carboxamide]
27 | – | > 7.52 | NC(=O)c1cccc2c1cc(C1CC1)n2-c1nc2c(c(NCc3ccccc3)n1)COCC2 [compound 131, 1-[4-(benzylamino)-5H,7H,8H-pyrano[4,3-d]pyrimidin-2-yl]-2-cyclopropyl-1H-indole-4-carboxamide]
28 | – | > 6.00 | Cc1cc2c(C(=O)N(C)C)cccc2n1-c1nc2c(c(NCc3ccccc3)n1)CCCC2 [compound 133, 1-(4-(benzylamino)-5,6,7,8-tetrahydroquinazolin-2-yl)-N,N,2-trimethyl-1H-indole-4-carboxamide]
29 | – | > 7.52 | CCOc1cc2c(C(N)=O)cccc2n1-c1nc2c(c(NCc3ccccc3)n1)CCCC2 [compound 135, 1-[4-(benzylamino)-5,6,7,8-tetrahydroquinazolin-2-yl]-2-ethoxy-1H-indole-4-carboxamide]
